These results are taken from US7482024B2, “Compositions comprising an active agent” (Nektar Therapeutics, priority 1999, dated 2009).

Where “and” joins values, the source holds several entries; their conditions need not be identical. Equal entries are not always repeated. Entries after “also recorded” stand apart in the source; their conditions may differ.

This data set is described as follows: Surface tension measurement, Kruss Processor Tensiometer-K12, Wilhelmy-method (plate method). It counts as physicochemical. Conditions: for Surface tension, 25° C. Extrapolated Values at 2 mg/ml / Surface tension, 45° C. Extrapolated Values at 2 mg/ml: extrapolated to 2 mg/ml. As to the method:
A “surface active” material is one having surface activity (measured, e.g., by surface tensiometry), as characterized by its ability to reduce the surface tension of the liquid in which it is dissolved. […] A peptide that is more surface active than another peptide is one which decreases the surface tension of water to a greater extent, when present in the liquid at the same concentration and measured under the same set of experimental conditions. The surface tension of several representative dipeptides, tripeptides, and proteins was measured at 25° C. and 45° C. to provide an indication of their relative surface activities. Surface tension measurements were carried out using a Kruss Processor Tensiometer-K12 with the Wilhelmy-method (Plate method). Solutions were prepared by dissolving either 0.05%, 0.2%, or 0.6% peptide/protein (by weight) along with an appropriate amount of raffinose by weight to provide final solutions having a 1.0% by weight solids content. Surface tension measurements at 25° C. and 45° C. were then obtained for the test solutions at three different time points (49 seconds, 100 seconds and 194 seconds).

[1] abbreviates: 0.2% (wt/vol) plus raffinose to 1% total solids, 25° C., 49 s.
Where [2] appears, read: 0.2% (wt/vol) plus raffinose to 1% total solids, 25° C., 100 s.
[3] abbreviates: 0.2% (wt/vol) plus raffinose to 1% total solids, 25° C., 194 s.
Setting [4] is: Table 2: 0.20% (wt/vol) plus 0.80% raffinose, 25° C., 49 s.
Where [5] appears, read: Table 2: 0.20% (wt/vol) plus 0.80% raffinose, 25° C., 100 s.
[6] abbreviates: Table 2: 0.20% (wt/vol) plus 0.80% raffinose, 25° C., 194 s.

Turning to Val-Ile [reference compound], the “Surface tension, Actual MEAN” value is, setting by setting: (1.11 mg/ml, 25° C.) 71.6 mN/m; (1.11 mg/ml, 45° C.) 66.3 mN/m; (3.33 mg/ml, 25° C.) 70.1 mN/m; (3.33 mg/ml, 45° C.) 65.3 mN/m; (10.00 mg/ml, 25° C.) 66.1 mN/m; (10.00 mg/ml, 45° C.) 61.9 mN/m. Besides, the “Surface tension, 25° C. Extrapolated Values at 2 mg/ml” value (25° C.) was 70.3 mN/m. Further, the “Surface tension, 45° C. Extrapolated Values at 2 mg/ml” value (45° C.) is on record as 65.8 mN/m.

On to Val-Leu [reference compound], for which the “Surface tension, Actual MEAN” value was found to be 70 mN/m (0.87 mg/ml, 25° C.); 65.5 mN/m (0.87 mg/ml, 45° C.); 69.5 mN/m (2.60 mg/ml, 25° C.); 65.0 mN/m (2.60 mg/ml, 45° C.); 68 mN/m (7.80 mg/ml, 25° C.); 63.5 mN/m (7.80 mg/ml, 45° C.). In addition, the “Surface tension, 25° C. Extrapolated Values at 2 mg/ml” value (25° C.) is given as 69.8 mN/m. Also, under “45° C.”, the “Surface tension, 45° C. Extrapolated Values at 2 mg/ml” value is given as 65.3 mN/m.

For di-alanine [reference compound], the “Surface tension (ST)” value is 72 mN/m and 72.1 mN/m under setting [1]; 72 mN/m and 71.9 mN/m and 72.1 mN/m under setting [2]; 71.9 mN/m and 72.1 mN/m under setting [3].

As to di-isoleucine [reference compound], the “Surface activity (ability to lower the surface tension of water), in words” value was “not particularly effective at lowering the surface tension of water”. Further, the “Surface tension (ST)” value under setting [4] was 67.7 mN/m and 67.6 mN/m and 68 mN/m. For the same substance, the “Surface tension (ST)” value under setting [5] is 71.6 mN/m and 67.2 mN/m and 67.8 mN/m. Further, under setting [6], the “Surface tension (ST)” value is 71.6 mN/m and 67 mN/m and 67.6 mN/m.

In the case of di-valine [reference compound], the “Surface activity (ability to lower the surface tension of water), in words” value is reported as “not particularly effective at lowering the surface tension of water”. The “Surface tension (ST)” value under setting [4] is 71.7 mN/m and 71.6 mN/m. For the same substance, the “Surface tension (ST)” value under setting [5] is given as 71.6 mN/m. The “Surface tension (ST)” value under setting [6] is listed as 71.6 mN/m.

On to dileucine [di-leucine], for which the “Surface activity (ability to lower the surface tension of water), in words” value is recorded as “highly surface active; also recorded: more effective than any of the other dimers examined in reducing the surface tension of water”. Moreover, for the setting “1.51 mg/ml, 25° C.”, the “Surface tension, Actual MEAN” value amounted to 61.5 mN/m. For the same substance, for the setting “1.51 mg/ml, 45° C.”, the “Surface tension, Actual MEAN” value is given as 53.2 mN/m. Further, under “4.53 mg/ml, 25° C.”, the “Surface tension, Actual MEAN” value came to 54.9 mN/m. In addition, the “Surface tension, Actual MEAN” value (4.53 mg/ml, 45° C.) stood at 48.2 mN/m. Also, the “Surface tension, Actual MEAN” value (13.60 mg/ml, 25° C.) is reported as 46.6 mN/m. Also, the “Surface tension, Actual MEAN” value (13.60 mg/ml, 45° C.) was 42.7 mN/m. Also, the “Surface tension (ST)” value under setting [1] is 58.4 mN/m and 58.7 mN/m and 60.1 mN/m. Under setting [2], the “Surface tension (ST)” value was 58.1 mN/m and 58.3 mN/m and 59.8 mN/m. Under setting [3], the “Surface tension (ST)” value was 57.9 mN/m and 58.2 mN/m and 59.7 mN/m. Moreover, the “Surface tension, 25° C. Extrapolated Values at 2 mg/ml” value (25° C.) was 60.4 mN/m. For the same substance, the “Surface tension, 45° C. Extrapolated Values at 2 mg/ml” value (45° C.) is recorded as 52.4 mN/m.

Regarding leu-leu-ala, the “Surface tension, Actual MEAN” value reads like this: (0.76 mg/ml, 25° C.) 60.7 mN/m; (0.76 mg/ml, 45° C.) 58.3 mN/m; (2.27 mg/ml, 25° C.) 43.5 mN/m; (2.27 mg/ml, 45° C.) 48.2 mN/m; (6.80 mg/ml, 25° C.) 39.9 mN/m; (6.80 mg/ml, 45° C.) 48.4 mN/m. In addition, the “Surface tension, 25° C. Extrapolated Values at 2 mg/ml” value (25° C.) is reported as 46.6 mN/m. Also, the “Surface tension, 45° C. Extrapolated Values at 2 mg/ml” value (45° C.) is 49.8 mN/m.

For leu-phe-leu, the “Surface tension, Actual MEAN” value reads like this: (0.68 mg/ml, 25° C.) 54.7 mN/m; (0.68 mg/ml, 45° C.) 53.6 mN/m; (2.03 mg/ml, 25° C.) 48.3 mN/m; (2.03 mg/ml, 45° C.) 46.2 mN/m; (6.10 mg/ml, 25° C.) 41.5 mN/m; (6.10 mg/ml, 45° C.) 39.3 mN/m. Besides, the “Surface tension, 25° C. Extrapolated Values at 2 mg/ml” value (25° C.) is given as 48.3 mN/m. Under “45° C.”, the “Surface tension, 45° C. Extrapolated Values at 2 mg/ml” value was 46.2 mN/m.

For the substance leu-tyr-leu, the “Surface activity (ability to lower the surface tension of water), in words” value was “the most surface active of the trimers”. Further, the “Surface tension, Actual MEAN” value (0.32 mg/ml, 25° C.) is listed as 58.4 mN/m. For the same substance, the “Surface tension, Actual MEAN” value (0.32 mg/ml, 45° C.) turned out to be 55.4 mN/m. Besides, the “Surface tension, Actual MEAN” value (0.97 mg/ml, 25° C.) is 51.6 mN/m. Further, the “Surface tension, Actual MEAN” value (0.97 mg/ml, 45° C.) was found to be 49.1 mN/m. The “Surface tension, Actual MEAN” value (2.90 mg/ml, 25° C.) was found to be 44.7 mN/m. Further, where the note is “2.90 mg/ml, 45° C.”, the “Surface tension, Actual MEAN” value amounted to 40.8 mN/m. For the setting “25° C.”, the “Surface tension, 25° C. Extrapolated Values at 2 mg/ml” value is reported as 47.9 mN/m. The “Surface tension, 45° C. Extrapolated Values at 2 mg/ml” value (45° C.) is listed as 44.7 mN/m.

As to “salmon calcitonin [sal. Calcitonin, reference compound]”, the “Surface activity (ability to lower the surface tension of water), in words” value is on record as “highly surface active”. In addition, under setting [1], the “Surface tension (ST)” value was 48.7 mN/m. Moreover, under “0.2% (wt/vol) plus raffinose to 1% total solids, 25° C., 49 s, listed as sal. calcitonin”, the “Surface tension (ST)” value turned out to be 48.4 mN/m. Besides, under setting [2], the “Surface tension (ST)” value is given as 48.6 mN/m. Further, the “Surface tension (ST)” value (0.2% (wt/vol) plus raffinose to 1% total solids, 25° C., 100 s, listed as sal. calcitonin) came to 48.4 mN/m. Also, under setting [3], the “Surface tension (ST)” value is 48.5 mN/m. In addition, the “Surface tension (ST)” value (0.2% (wt/vol) plus raffinose to 1% total solids, 25° C., 194 s, listed as sal. calcitonin) is given as 48.4 mN/m.

For tri-valine [reference compound], the “Surface activity (ability to lower the surface tension of water), in words” value is “not particularly effective at lowering the surface tension of water”. Also, the “Surface tension (ST)” value under setting [4] is 68.8 mN/m and 68.7 mN/m. Further, under setting [5], the “Surface tension (ST)” value was 68.8 mN/m and 68.7 mN/m. The “Surface tension (ST)” value under setting [6] is 68.8 mN/m and 68.7 mN/m.
